Read-outs that look alike come from different tables or passages of the source. Square brackets hold non-standard residues; d marks the D form. Nle = CCCC[C@H](N)C(=O)O

The test system of the test is PC12 cells. Briefly: Neuroprotective action against β-amyloid, viable cell count / survival rate by WST-8 method. The format is cell-based, rat. More on the design: key to Neuroprotective action: +, P < 0.05 when compared with the no neuropeptide-added group. The procedure:
An experiment was performed similarly to Example 5, and then the neuroprotective action against cell death by β-amyloid of the following PACAP-related neuropeptides (peptides 1, 2, 4, 5, 7, 8, 15, 16, 17, 19, 21, 26, 27, 28, 29, 30, 31, 32, 33, 34, 35, 36, 37, 38 and 39) and VIP-related neuropeptides (peptides 3, 9, 10, 11, 12, 13, 14, 18, 20, 22, 23, 24 and 25) was confirmed. Specifically, amyloid (50 μM) and each of the various PACAP-related neuropeptides and VIP-related neuropeptides were added to the cultured PC12 cells. The number of […] calculated by the WST-8 method, so that comparison and examination was performed for the neuroprotective action of these various peptides against amyloid. If the neuropeptides had neuroprotective action, a clear difference in viable cell count can be observed between cases in which neuropeptides were added and cases in which neuropeptides were not added. In PC12 cells added with each of the various neuropeptides, a case wherein a higher cell survival rate (P<0.05) was observed compared with groups in which neuropeptides had not been added, was determined as having neuroprotective action. The results are shown in Table 1 and Table 2. β-amyloid was added to PC12 cells that had been cultured similarly to Example 5. At this time, neuropeptides PACAP27, VIP and humanin, and a cell-permeable cAMP derivative were allowed to respectively co-exist, so that the effect of these neuropeptides against cell death by β-amyloid was confirmed. Cell death was examined by evaluating cell count using the WST-8 method, and then by calculating cell survival rate. […] In the presence of β-amyloid, approximately 70% of the cells died. […] The neuroprotective action of humanin, a recently found human-derived neuroprotective substance (Proc Natl Acad Sci USA (2001) 98 (11) 6336-6341), was also examined. […] At this time, neuropeptides at various concentrations were allowed to co-exist, so that the relationship between the neuroprotective action and the concentration was investigated. Cells were calculated by the WST-8 method, and then the extent to which cell death by β-amyloid could be attenuated was expressed numerically.

The mark [1] stands for this setting: VIP-related neuropeptide 10^−7 M, amyloid (50 μM), cell survival rate vs no peptide.
The mark [2] stands for this setting: PACAP-related neuropeptide 10^−9 M, amyloid (50 μM), cell survival rate vs no peptide.

Turning to “humanin (MAPRGFSCLLLLTSEIDLPVKRRA; Humanin; UniProt Q8IVG9 1-24, looked up) [a recently found human-derived neuroprotective substance, reference compound]”, the “neuroprotective action against cell death by β-amyloid (cell survival rate)” value (co-existing with β-amyloid, PACAP27 10^−9 M, FIG. 5) is given as “showed neuroprotective action, although the effect was also weaker than that of PACAP27”.
On to “VIP short form (VIP27) (HSDAVFTDNYTRLRKQMAVKKYLNSIL) [Peptide 25]”, for which the Neuroprotective action entry under setting [1] was “+”.
As to “PACAP long form (PACAP28) (H-HSDGIFTDSYSRYRKQMAVKKYLAAVLG-NH2; ends and bridges not checked) [Peptide 29]”, the Neuroprotective action entry under setting [2] is reported as “+”.
Consider “[G^4, I^5, S^9]-VIP (H-HSDGIFTDSYTRLRKQMAVKKYLNSILN-NH2; ends and bridges not checked) [Peptide 10]”, for which the Neuroprotective action entry under setting [1] was “+”.
Still for that read-out and setting: under “VIP short form (HSDAVFTDNYTRLRKQMAVKKYL) [Peptide 20]” stands “+”.
Consider “PACAP long form (PACAP35) (H-HSDGIFTDSYSRYRKQMAVKKYLAAVLGKRYKQRV-NH2; ends and bridges not checked) [Peptide 36]”, for which, under setting [2], the Neuroprotective action entry is given as “+”.
As for PACAP38 [Peptide 1], the Neuroprotective action entry is “+”.
For “PACAP long form (PACAP33) (H-HSDGIFTDSYSRYRKQMAVKKYLAAVLGKRYKQ-NH2; ends and bridges not checked) [Peptide 34]”, under setting [2], the Neuroprotective action entry was “+”.
As for “PACAP long form (PACAP37) (H-HSDGIFTDSYSRYRKQMAVKKYLAAVLGKRYKQRVKN-NH2; ends and bridges not checked) [Peptide 38]”, the Neuroprotective action entry under setting [2] is “+”.
For “PACAP long form (PACAP30) (H-HSDGIFTDSYSRYRKQMAVKKYLAAVLGKR-NH2; ends and bridges not checked) [Peptide 31]”, under setting [2], the Neuroprotective action entry is listed as “+”.
As for “PACAP short form (PACAP24) (H-HSDGIFTDSYSRYRKQMAVKKYLA-NH2; ends and bridges not checked) [Peptide 26]”, the Neuroprotective action entry under setting [2] is “+”.
For “[A^4, V^5]-PACAP27 (H-HSDAVFTDSYSRYRKQMAVKKYLAAVL-NH2; ends and bridges not checked) [Peptide 7]”, the Neuroprotective action entry under setting [2] was “+”.
The same measure, in the same setting: the value for “PACAP long form (PACAP36) (H-HSDGIFTDSYSRYRKQMAVKKYLAAVLGKRYKQRVK-NH2; ends and bridges not checked) [Peptide 37]” was “+”; that for “PACAP short form (PACAP25) (H-HSDGIFTDSYSRYRKQMAVKKYLAA-NH2; ends and bridges not checked) [Peptide 27]” was “+”.
As to “VIP short form (VIP24) (HSDAVFTDNYTRLRKQMAVKKYLN) [Peptide 22]”, under setting [1], the Neuroprotective action entry is on record as “+”.
The same measure, in the same setting: the value for “VIP/PACAP highly basic chimera peptide (H-HSDAVFTDNYTRLRRQ[Nle]AVRRYLNSILNGRRYRQRVRNR-NH2; ends and bridges not checked) [Peptide 18]” was “+”.
Consider “PACAP27 highly basic derivative B (H-HSDGIFTDSYSRYRRQLAVRRYLAAVLGKR-NH2; ends and bridges not checked) [Peptide 16]”, for which, under setting [2], the Neuroprotective action result is given as “+”.
As for “Arg-PACAP27 (H-HSDGIFTDSYSRYRRQLAVRRYLAAVL-NH2; ends and bridges not checked) [Peptide 6]”, under setting [2], the Neuroprotective action entry is recorded as “+”.
Take “PACAP long form (PACAP29) (H-HSDGIFTDSYSRYRKQMAVKKYLAAVLGK-NH2; ends and bridges not checked) [Peptide 30]”: the Neuroprotective action result under setting [2] is “+”.
With “PACAP long form (PACAP32) (H-HSDGIFTDSYSRYRKQMAVKKYLAAVLGKRYK-NH2; ends and bridges not checked) [Peptide 33]”, the Neuroprotective action result under setting [2] was “+”.

These data come from US20040132648A1, “Remedies and/or preventives for conformational diseases” (priority 2001, published 2004).
